Measured values from ChEMBL document CHEMBL2016494, “Ligand-based design of a potent and selective inhibitor of cytochrome P450 2C19” (J Med Chem, 2012).

Tests used:
[1] = Apparent intrinsic clearance in human liver microsomes by LC-MS/MS analysis
Cytochrome P450 2D6 = Cytochrome P450 2D6 (Homo sapiens, UniProt P10635); assay: Inhibition of CYP2D6 in human liver microsomes using dextromethorphan as substrate preincubated for 5 mins by LC-MS/MS analysis
Cytochrome P450 1A2 = target: T1, Cytochrome P450 1A2 (Homo sapiens, UniProt P05177); assay: Inhibition of CYP1A2 in human liver microsomes using phenacetin preincubated for 5 mins by LC-MS/MS analysis
T1 sequence (P05177 whole entry): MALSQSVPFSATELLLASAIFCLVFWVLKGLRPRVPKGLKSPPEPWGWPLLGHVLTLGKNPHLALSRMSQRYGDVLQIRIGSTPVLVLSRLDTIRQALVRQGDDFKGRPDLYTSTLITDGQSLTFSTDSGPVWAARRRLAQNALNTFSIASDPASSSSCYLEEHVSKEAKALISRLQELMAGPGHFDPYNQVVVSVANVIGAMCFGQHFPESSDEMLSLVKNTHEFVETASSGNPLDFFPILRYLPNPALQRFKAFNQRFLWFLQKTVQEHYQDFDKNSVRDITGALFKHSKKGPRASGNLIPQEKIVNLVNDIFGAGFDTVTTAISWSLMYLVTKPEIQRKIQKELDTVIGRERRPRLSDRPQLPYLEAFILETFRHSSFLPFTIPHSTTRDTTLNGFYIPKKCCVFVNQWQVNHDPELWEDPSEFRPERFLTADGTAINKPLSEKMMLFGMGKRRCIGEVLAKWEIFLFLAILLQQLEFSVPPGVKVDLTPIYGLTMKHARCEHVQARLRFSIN

[2] = Half life in human liver microsomes by LC-MS/MS analysis
Cytochrome P450 2C8 = target: T2, Cytochrome P450 2C8 (Homo sapiens, UniProt P10632); assay: Inhibition of CYP2C8 in human liver microsomes using paclitaxel as substrate preincubated for 5 mins by LC-MS/MS analysis
T2 sequence (P10632 whole entry): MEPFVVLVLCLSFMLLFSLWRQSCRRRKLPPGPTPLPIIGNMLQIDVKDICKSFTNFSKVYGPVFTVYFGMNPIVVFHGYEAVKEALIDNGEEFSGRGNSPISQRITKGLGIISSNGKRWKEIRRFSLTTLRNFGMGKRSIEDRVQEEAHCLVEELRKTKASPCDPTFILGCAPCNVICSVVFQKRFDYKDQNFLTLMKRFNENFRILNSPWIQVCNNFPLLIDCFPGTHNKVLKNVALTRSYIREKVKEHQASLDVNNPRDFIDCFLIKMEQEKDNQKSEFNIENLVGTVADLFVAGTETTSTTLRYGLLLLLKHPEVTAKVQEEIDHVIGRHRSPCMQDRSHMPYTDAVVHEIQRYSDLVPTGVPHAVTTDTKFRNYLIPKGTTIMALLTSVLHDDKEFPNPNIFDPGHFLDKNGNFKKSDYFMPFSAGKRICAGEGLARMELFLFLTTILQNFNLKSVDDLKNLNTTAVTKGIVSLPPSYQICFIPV

Cytochrome P450 2B6 = target: T3, Cytochrome P450 2B6 (Homo sapiens, UniProt P20813); assay: Inhibition of CYP2B6 in human liver microsomes using bupropion as substrate preincubated for 5 mins by LC-MS/MS analysis
T3 sequence (P20813 whole entry): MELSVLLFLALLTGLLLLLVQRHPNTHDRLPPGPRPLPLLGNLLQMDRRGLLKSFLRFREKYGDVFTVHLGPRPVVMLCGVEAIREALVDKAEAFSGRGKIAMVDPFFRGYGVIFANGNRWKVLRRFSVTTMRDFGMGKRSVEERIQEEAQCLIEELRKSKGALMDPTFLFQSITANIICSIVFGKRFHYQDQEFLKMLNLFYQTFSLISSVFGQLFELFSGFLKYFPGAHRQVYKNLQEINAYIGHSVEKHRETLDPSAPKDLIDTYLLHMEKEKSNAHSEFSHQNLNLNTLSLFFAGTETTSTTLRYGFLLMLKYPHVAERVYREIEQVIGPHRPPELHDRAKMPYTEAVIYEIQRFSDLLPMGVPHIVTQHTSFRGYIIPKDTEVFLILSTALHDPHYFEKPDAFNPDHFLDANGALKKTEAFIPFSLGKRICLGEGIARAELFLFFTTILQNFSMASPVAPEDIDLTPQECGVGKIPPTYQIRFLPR

Cytochrome P450 2E1 = Cytochrome P450 2E1 (Homo sapiens, UniProt P05181); assay: Inhibition of CYP2E1 in human liver microsomes using chlorzoxazone as substrate preincubated for 5 mins by LC-MS/MS analysis
Sequence of Cytochrome P450 2E1 (P05181 whole entry): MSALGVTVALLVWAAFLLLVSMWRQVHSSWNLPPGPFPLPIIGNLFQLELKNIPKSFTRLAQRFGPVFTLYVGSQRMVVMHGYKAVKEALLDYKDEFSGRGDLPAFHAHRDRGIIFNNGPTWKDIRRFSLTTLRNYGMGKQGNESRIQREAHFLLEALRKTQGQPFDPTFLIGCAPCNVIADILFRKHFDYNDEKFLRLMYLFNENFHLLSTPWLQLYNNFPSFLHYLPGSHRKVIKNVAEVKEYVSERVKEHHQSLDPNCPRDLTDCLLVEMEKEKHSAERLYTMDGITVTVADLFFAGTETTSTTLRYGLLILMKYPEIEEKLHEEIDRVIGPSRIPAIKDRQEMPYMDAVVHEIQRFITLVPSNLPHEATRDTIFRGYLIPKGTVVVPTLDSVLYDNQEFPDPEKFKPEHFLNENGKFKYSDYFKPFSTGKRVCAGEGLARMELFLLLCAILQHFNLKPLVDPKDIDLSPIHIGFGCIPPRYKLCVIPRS

Sequence of Cytochrome P450 2D6 (P10635 whole entry): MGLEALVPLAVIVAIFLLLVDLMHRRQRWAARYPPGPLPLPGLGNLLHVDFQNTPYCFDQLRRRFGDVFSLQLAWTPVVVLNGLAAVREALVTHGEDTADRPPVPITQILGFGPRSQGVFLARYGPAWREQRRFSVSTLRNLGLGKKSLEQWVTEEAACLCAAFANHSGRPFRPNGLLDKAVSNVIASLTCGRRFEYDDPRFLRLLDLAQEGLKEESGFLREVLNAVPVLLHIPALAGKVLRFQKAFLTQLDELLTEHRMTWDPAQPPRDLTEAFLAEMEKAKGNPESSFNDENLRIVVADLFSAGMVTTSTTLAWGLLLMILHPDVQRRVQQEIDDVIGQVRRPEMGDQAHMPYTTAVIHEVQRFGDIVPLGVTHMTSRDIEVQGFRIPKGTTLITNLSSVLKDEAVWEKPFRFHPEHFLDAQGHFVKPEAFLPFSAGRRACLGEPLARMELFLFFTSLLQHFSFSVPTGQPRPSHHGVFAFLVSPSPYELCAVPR

Row | microsomal CLint ([1]; microsomes) | IC50 (Cytochrome P450 2D6) | IC50 (Cytochrome P450 1A2) | half-life ([2]; microsomes) | IC50 (Cytochrome P450 2C8) | microsomal CLint ([1]; liver microsomes) | IC50 (Cytochrome P450 2B6) | half-life ([2]; liver microsomes) | IC50 (Cytochrome P450 2E1) | Compound
1 | 724 µL/min/mg | 1.94 µM | 0.93 µM | 0.16 h | 3.12 µM | – | – | – | – | CCCSc1nc2ccc(OC)cc2[nH]1
2 | – | – | – | – | – | < 57.8 µL/min/mg | 28.8 µM | 2 h | – | COc1ccc2[nH]c(SCCCC(=O)O)nc2c1
3 | < 57.8 µL/min/mg | – | – | 2 h | > 50 µM | – | > 50 µM | – | > 50 µM | COc1ccc2[nH]c(SCc3ccccc3)nc2c1
4 | – | – | – | – | – | 860 µL/min/mg | – | 0.134 h | – | COc1ccc2nc(SCc3ccc(C(=O)O)cc3)[nH]c2c1
